# Results as given in patent publication US10662411B2, “Culture method for stable proliferation of pluripotent stem cell while maintaining undifferentiated state” (AJINOMOTO CO., INC., priority 2013, dated 2020).
# Structures can show the parent of a compound that is named as a salt.
# What was measured:
# Format in all cases: cell-based, human
# [1] = system: induced pluripotent stem cells (iPS cells, 201B7 strain); assay: Proliferation promoting effect of ethanolamine analogs, laminin 511 fragment, single cell-seeding; details: 1 week
# Description: (§1) In the following Examples, proliferation effects of various test compounds on human pluripotent stem cells were evaluated. As human pluripotent stem cells, induced pluripotent stem cells (iPS cells, 201B7 strain) purchased from iPS Academia Japan, Inc. were used, unless particularly specified. Cell culture was performed using a culture vessel (Becton, Dickinson and Company, Falcon culture petri dish or Falcon culture plate) coated with a basal lamina matrix under the conditions of 5% CO2/37° C.
# (§2) Various test compounds were added to a medium having the “E8” composition (disclosed in Nature Methods, 2011, 8, 424-429, which is incorporated herein by reference in its entirety) considered at present to be the minimum composition for cultivating human pluripotent stem cells at given concentrations and used for culture, and the effects thereof were studied. The medium was prepared by using Essential 8 (Life Technologies: A14666SA) considered to have the “E8” composition or a medium formulated to have an equivalent composition.
# (§3) After the culture, the cell number was counted to examine the effect of O-phosphoryl ethanolamine. The culture period was set to 1 week. 13,000 viable cells per well were used for single cell-seeding. As a basal lamina matrix, a fragment containing the active domain of laminin 511, which was purchased from Osaka University, was applied at 4.8 μg/well. Y-27632 was added (final concentration 10 μM, Nacalai Tesque: 08945-84) to the medium used for seeding. The cells were cultured in a medium free of Y-27632 from the following day. The number of viable cells was measured by Cell Viability autoanalyzer ViCELL™ XR (BECKMAN COULTER).
# as §3, with “2-(methylamino)ethanol.” for “O-phosphoryl ethanolamine.”
# as §3, with “2-dimethylaminoethanol.” for “O-phosphoryl ethanolamine.”
# as §3, with “ethanolamine hydrochloride.” for “O-phosphoryl ethanolamine.”, “The cells were cultured in a medium free of Y-27632 from the following day.” left out
# [2] = system: induced pluripotent stem cells (iPS cells, 201B7 strain); assay: Proliferation promoting effect of ethanolamine and combination with albumin, laminin 511 fragment, single cell-seeding; details: 1 week
# Description: as §1, §2
# Ethanolamine (Sigma-Aldrich Co. LLC: E0135) was added at a final concentration of 6, 30, 150, 750 or 3,750 μM, and the medium was used for culture immediately after preparation, and the effect of ethanolamine was examined by studying the cell numbers after culture. The culture period was 1 week. […] 13,000 viable cells per 1 well were used for single cell-seeding. As a basal lamina matrix, a fragment containing the active domain of laminin 511, which was purchased from Osaka University, was applied at 5 μg/well. Y-27632 was added (final concentration 10 μM, Nacalai Tesque: 08945-84) to the medium used for seeding. The cells were cultured in a medium free of Y-27632 from the following day. The number of viable cells was measured by Trypan Blue (Life Technologies: 15250-061) staining using a hemocytometer.
# [3] = system: induced pluripotent stem cells (iPS cells, 201B7 strain); assay: Proliferation promoting effect of ethanolamine, culture using matrigel; details: 6, 30, 150, 750 or 3,750 μM, 8 days, single cell-seeding
# Description: as §1, §2
# Ethanolamine (Sigma-Aldrich Co. LLC: E0135) was added at a final concentration of 6, 30, 150, 750 or 3,750 μM, and the medium was used for culture immediately after preparation, and the effect of ethanolamine was examined by studying the cell numbers after culture. The culture period was 8 days. 100,000 cells per 1 well were used for single cell-seeding. […]
# [4] = system: induced pluripotent stem cells (iPS cells, 201B7 strain); assay: Influence of oleic acid carried by albumin on cell proliferation; details: oleic acid carried by albumin 2.2, 6.5, 21.7 mg/g (20, 60, 200 μM in medium); albumin 2.6 g/l, ethanolamine 30 μM; one week
# Description: as §1
# Furthermore, a suspension of activated carbon (5 g, manufactured by Wako Pure Chemical Industries, Ltd.) heated at 200° C. for 30 min in advance in phosphate buffer (20 ml) was added to 100 ml. After stirring at 4° C. for 3 hr, the mixture was centrifuged at 4° C., 11,900 rpm for 20 min. […] Ethanolamine (final concentration 30 μM) was added to each medium. Using each medium, the cells were cultured for one week, and the cell number after culture was confirmed to study the influence of oleic acid. 13,000 viable cells per well were used for single cell-seeding. As a basal lamina matrix, a fragment containing the active domain of laminin 511, which was purchased from Osaka University, was applied at 4.8 μg/well. […] The number of viable cells was measured by Cell Viability autoanalyzer ViCELL™ XR (BECKMAN COULTER).
# [5] = 6, 30, 150 or 750 μM in medium with albumin 2.6 g/l
compound,measurement,setting,value
CNCCO [2-(methylamino)ethanol],cell number relative to non-addition group (0 μM),[1]; [5],proliferation-promoting effect in a relatively wide concentration range
CN(C)CCO [2-dimethylaminoethanol],cell number relative to non-addition group (0 μM),[1]; [5],proliferation promoting effect in a relatively wide concentration range
same,cell number relative to non-addition group (0 μM),"[1]; high concentration range, medium with albumin 2.6 g/l",proliferation suppressive effect appears in a high concentration range
NCCOP(=O)(O)O [O-phosphoryl ethanolamine],cell number relative to non-addition group (0 μM),[1]; [5],proliferation-promoting effect in a relatively wide concentration range
NCCO [ethanolamine hydrochloride],cell number relative to non-addition group (0 μM),[1]; [5],proliferation-promoting effect in a relatively wide concentration range
NCCO [ethanolamine],cell number relative to non-addition group (0 μM),"[2]; 6, 30, 150, 750 or 3,750 μM, without albumin",proliferation-promoting effect in a relatively wide concentration range
same,cell number relative to non-addition group (0 μM),"[2]; 6-3,750 μM combined with albumin 2.6 g/l",combination with albumin further enhances the proliferation promoting effect
same,cell number relative to non-addition group (0 μM),[2]; high concentration range combined with albumin 2.6 g/l,"resists a proliferation suppressive effect in a high concentration range, and shows a proliferation promoting effect"
same,cell number relative to non-addition group (0 μM),"[2]; high concentration range, without albumin",proliferation suppressive effect conversely appears in a high concentration range
same,cell number after culture,[3],proliferation promoting effect in a wide concentration range
CCCCCCCC/C=C\CCCCCCCC(=O)O [oleic acid],cell number after culture,[4],cell proliferation was suppressed along with an increasing amount of oleic acid carried by albumin
